We go through 1 compound from PMC7224213, “A novel peroxidase from Ziziphus jujuba fruit: purification, thermodynamics and biochemical characterization properties” (Scientific Reports, 2020).

The subject of the experiment is T1, Z. jujuba peroxidase (POD IIA).
T1 construct: 56 kDa by gel filtration and SDS-PAGE (single band); EC 1.11.1.7
Kind of experiment: absorbance at […] nm, Lineweaver-Burk. It is filed as biochemical, Ziziphus jujuba. The note with it: co-substrate H2O2; 0.05 M sodium acetate pH 5.5; 50 °C; guaiacol 20-90 mM; text prints 23.5 with the units of Km and Vmax interchanged (unit/ml).

Turning to `COc1ccccc1O` [guaiacol], the Km (in general, the substrate concentration at which the rate is half of its maximum) stood at 23.5 mM.
